Experimental data as given in PubChem BioAssay AID1626 (SRMLSC, 2009).

Test system: M. tuberculosis H37Rv growth inhibition
Assay: M. tuberculosis H37Rv growth inhibitors, H37Rv strain (AID 1626)
Conditions: for IC90: measured here: IC90 against H37Rv; for CC50: measured here: Vero cell cytotoxicity

SMILES	IC50	IC90	CC50
CN1CCN(c2ccccc2NC(=O)c2cc3c(s2)-c2ccccc2OC3)CC1	8.62 µM	17.7 µM	10.7 µM
Cc1cc(=O)oc2cc(Oc3ncccc3[N+](=O)[O-])ccc12	9.46 µM	> 100 µM	–
Cc1ccn2c(Nc3ccccc3C)c(-c3ccccn3)nc2c1	1.42 µM	1.59 µM	3.12 µM
O=C1CC(=C(c2ccccc2)c2ccccc2)C(=O)N1CCCCN1CCN(c2cccc(Cl)c2)CC1	4.47 µM	6.35 µM	> 40 µM
COc1ccc(Br)cc1C(=O)Nc1ccccc1N1CCN(C(=O)c2ccccc2)CC1	16.7 µM	> 100 µM	> 40 µM
COc1ccc(Nc2nc(-c3ccc4c(c3)NC(=O)CO4)cs2)cc1	10 µM	> 100 µM	> 40 µM
O=C(/C=C/c1ccc2c(c1)OCO2)c1c(O)n(CCc2ccccc2)c(=O)[nH]c1=O	6.87 µM	9.99 µM	27.4 µM
Cc1ccc(N2CCN(C(=O)Nc3cccc([N+](=O)[O-])c3)CC2C)cc1 (stereo unspecified)	27.1 µM	> 100 µM	> 40 µM
Cc1ccc(S(=O)(=O)NC(=O)Nc2nc(-c3ccc(F)c(F)c3)cs2)cc1	6.15 µM	> 100 µM	–
CCc1ccc(C2c3[nH]c4ccccc4c3CCN2C(=O)c2cc(C)nn2C)cc1 (stereo unspecified)	22.2 µM	31.9 µM	> 40 µM
CCN1CCN(c2cc3c(cc2F)c(=O)c(C(=O)O)cn3C2CC2)CC1	< 0.391 µM	< 0.391 µM	–
Oc1cnn(-c2ccccc2)c1	–	> 100 µM	–
Oc1ccccc1-c1nc(/C=C/c2ccccc2)nn1-c1ccccc1	16.3 µM	> 100 µM	–
O=C(C[n+]1cc(-c2ccc(F)cc2)n2c1CCC2)N1c2ccccc2Sc2ccccc21	38.7 µM	> 100 µM	–
Cc1c(CN2CCC(CO)(CCOc3ccccc3)CC2)[nH]c2ccc(Cl)cc12	4.57 µM	5.33 µM	15.6 µM
Cc1ccc(N(CCC#N)C(=O)CCl)cc1C	19.7 µM	38.4 µM	1.94 µM
CC(=O)CC1(OC(C)=O)C(=O)N(C)c2ccccc21 (stereo unspecified)	5.34 µM	5.89 µM	24.3 µM
COc1cccc(-c2nc(-c3ccccc3)nc(N3CCN(C)CC3)c2C#N)c1	8.8 µM	12.4 µM	26.7 µM
CCOC(=O)N1CCN(C(=O)CSc2nnc(-c3cc(OC)cc(OC)c3)o2)CC1	2.82 µM	7.03 µM	–
CC1C(c2ccccc2)N(C)C(c2ccccc2)CC1(O)c1ccccc1 (stereo unspecified)	5.85 µM	6.61 µM	> 40 µM
CCOC(=O)c1ccc(NC(=O)CCSCCc2ccccn2)cc1	55.4 µM	> 100 µM	–
CCOC(=O)c1ccc(NC(=O)C2C3CCC(C3)C2C(=O)O)cc1 (stereo unspecified)	–	> 100 µM	–

SMILES	IC50	IC90	CC50
CCC/C(O)=C1\C(=O)CCCC1=NCCc1c(C)[nH]c2ccc(C)cc12	–	> 100 µM	–
CCOc1ccc2nc(SCC(=O)Nc3ccc4c(c3)OCO4)sc2c1	25 µM	> 100 µM	–
COc1ccc(-c2nc(Cn3c(SCc4ccc(C)cc4)nc4ccncc43)c(C)o2)cc1OC	6.52 µM	> 100 µM	> 40 µM
CCOC(=O)N1CCN(C(=O)CSc2nc(-c3cccc(C)c3)ns2)CC1	0.734 µM	0.828 µM	> 40 µM
CCOC(=O)C(/C=C(\C#N)C(=O)OCC)=C(/N)N1CCN(c2ccc(Cl)cc2)CC1	11.7 µM	13 µM	–
CCCCOC(=O)c1ccc(NC(=O)CSc2nnnn2C)cc1	19 µM	> 100 µM	–
Cc1nc(-c2ccccn2)nc(SCC(=O)c2ccc(F)cc2)c1Cl	7.37 µM	13.8 µM	> 40 µM
CCOC(=O)c1ccc(NC(=O)CCNC(=O)c2ccc([N+](=O)[O-])cc2)cc1	–	> 100 µM	–
Nc1nc(COc2ccc(Cl)cc2)cs1	–	> 100 µM	–
COC(=O)c1cccc(OC(N)=O)c1	72.9 µM	> 100 µM	–
CC(C)(C)NC(=O)COC(=O)c1snc(C(=O)NC2CCCCC2)c1N	1.84 µM	3.78 µM	> 40 µM
Cc1ccc(C2CC(C(F)(F)F)n3ncc(C(=O)NCc4ccco4)c3N2)cc1 (stereo unspecified)	< 0.195 µM	3.64 µM	–
O=C(OCC(=O)N1CCN(C(=O)c2ccco2)CC1)c1sc2ccccc2c1Cl	–	> 100 µM	–
CCCn1c(NC(=O)C23CC4CC(CC(O)(C4)C2)C3)nc2ccccc21	11.1 µM	> 100 µM	> 40 µM
O=C(O)c1cn(-c2ccc(N3CCCC3)c(F)c2)c2c(F)c(F)c(F)cc2c1=O	4.59 µM	9.57 µM	> 40 µM
Clc1nc(-c2ccccn2)nc2scc(-c3ccccc3)c12	9.23 µM	15.5 µM	19.9 µM
O=C(CSCc1ccc(Cl)cc1)Nc1ccc(-c2nnc(-c3ccccc3)o2)cc1	–	–	6.18 µM
O=C(Nc1nc(-c2ccccn2)cs1)C1CC1	3.96 µM	> 100 µM	> 40 µM
CC(=O)n1cc(N(C(=O)CCl)c2ccc(Cl)cc2)c2ccccc21	8.88 µM	19.6 µM	0.662 µM
Cc1scc(C(=O)NCc2ccco2)c1-c1ccccc1	2.81 µM	9.77 µM	–
Cc1nc(NCc2ccc3c(c2)OCO3)c2oc3ccccc3c2n1	7.7 µM	21.8 µM	–
